This is an account of results in US9888690B2, “Insecticidal compounds from Nothapodites foetida and process for the extraction thereof” (priority 2011, dated 2018).

In brackets after ≈: the same amount, converted by molar mass. Like-named read-outs stand apart in the source and are kept apart here.

Experiment [1] relates to Sitophilus oryzae and Rhizopertha dominica. Nature of the experiment: whole plant or invertebrate. The class given is in vivo. The method, then: The bioefficacy of the extracts were screened against S. oryzae and R. dominica on wheat at 1000 ppm. Required quantity of the extract dissolved in 6 ml of the solvent was pipetted over 60 gm wheat, taken in a 500 ml beaker. The grain was stirred with a glass rod to obtain uniform application. The control grain received the solvent alone. The treated grain was spread on petridish and kept overnight (12 hrs) for the solvent to evaporate. The 60 gm grain was divided into three lots of 20 gm each, taken in test tubes 25 mm diameter and 95 mm long.
Fifteen unsexed adults, 1-2 weeks old, of the rice weevil, Sitophilus oryzae and the lesser grain borer, Rhizopertha dominica were seeded into the tubes separately. The tubes were covered with muslin held by rubber bands. The mortality of the test insects was recorded after 1, 3, 7, 14 and 21 days. After the last count, the insects were discarded and the grain incubated to obtain the F1 progeny. The number of emerging progeny was recorded every second day till the emergence was complete. The progeny/adult day was calculated by Kazmaier et. al method. The progeny/adult day corrects for the reduction in the number of progeny due to adult mortality. A significant reduction in the progeny/adult day compared to the control indicates Insect Growth Regulating (IGR) activity, which is presented in Tables 1, 2 and 3.
Camptothecin obtained from Sigma Aldrich was assayed on wheat against S. oryzae and R. dominica as in example 1.

Another experiment has as its system THP 1 cell line. Nature of the experiment: MTT cell proliferation assay. The class given is cell-based. The following applies: Homo sapiens, read-out: MTT assay against THP 1 cell line % Inhibition. The protocol: Camptothecanoid 1, 2 and 3 and Phthalate were tested for their inhibitory effect on THP-1 cells. About 10,000 cells were taken per well in 96-well tissue culture plates and treated with test samples at 100 μg/ml for 72 h. Vehicle control (DMSO, 1%) and positive control (Paclitaxel, 100 μg/ml) was run simultaneously. Cell proliferation was assessed with 10 μl from 5 mg/ml stock solution of tetrazolium salt (MTT) dissolved in cell culture medium and subsequently incubated for additional 1 h at 37° C., 5% of CO2 and 95% humidity in incubator. The violet coloured formazan crystals formed were solubilized in 200 μl of isopropanol and incubated for another 4 h. The optical density was read on a micro plate reader (Spectramax plus384 plate reader, Molecular Devices Inc) at 490 nm filter against a blank prepared from cell-free wells. Absorbance given by cells treated with the carrier DMSO alone was taken as 100% cell growth (Table 2).

Experiment [2] deals with Mycobacterium tuberculosis Ra. The experiment can be described thus: XTT assay, anti-mycobacterial activity. In kind it is cell-based, M. tuberculosis H37Ra (ATCC 25177). To be noted: for inhibition at 100 µg/mL: inhibition at 100 μg/ml, 8th day of incubation. The method, then: M. tuberculosis H37Ra (ATCC 25177) cells, obtained from MTCC (Chandigarh, India), were grown to logarithmic phase (O.D, 0.595˜1.0) in a defined medium (M. pheli medium) under aerobic conditions in a shaker incubator (Thermo Electron Corporation Model 481) maintained at 150 rpm and 37° C. After growth, the culture was sonicated for 2 min using water bath sonicator. Sonicated cells were used for inoculation in micro plate wells. […] of culture containing ˜1×10^5 cells/ml was added to each well of 96 well plates. Camptothecanoid 1, 2 and 3 and Phthalate, […], dissolved in DMSO (Sigma), were added to the wells to attain a final concentration of 100 µg/ml respectively for screening. Then, the plate was incubated in a CO2 incubator at 37° C. The plate was taken out on the 8th day of incubation to measure the viable cell counts. The optical density of the culture was measured before addition of XTT (Sigma) at 470 nm which was served as a blank for the MIC calculations. XTT, 200 µM, was added and incubated for 20 min at 37° C. after shaking for 1 min. After 20 min of incubation, 60 µM Menadione (Sigma) was added and incubated at 37° C. for 40 min after mixing of 1 min. Finally, the optical density of the suspension was measured at 470 nm by using microplate reader. Isoniazid (Sigma) was used as a positive control.

The mark [3] stands for this setting: THP-1, inhibition at 100 μg/ml, 72 h.

`CC[C@@]1(O)C(=O)OCc2c1cc1n(c2=O)Cc2cc3ccccc3nc2-1` [Camptothecin]: the “No. of F1 progeny” value in experiment [1] (6.25 ppm on wheat) is 00. In addition, in experiment [1] (12.50 ppm on wheat), the “No. of F1 progeny” value amounted to 00 and the “adult mortality (in words)” value is recorded as “no adult mortality”. Further, in experiment [1] (25 ppm on wheat), the “No. days for 100% kill” value is reported as 21 days and the “No. of F1 progeny” value stood at 00. In experiment [1] (50 ppm on wheat), the “No. days for 100% kill” value is recorded as 14 days and the “No. of F1 progeny” value turned out to be 00. Moreover, in experiment [1] (75 ppm on wheat), the “No. days for 100% kill” value is recorded as 7 days and the “No. of F1 progeny” value is recorded as 00. Moreover, in experiment [1] (100 ppm on wheat), the “No. days for 100% kill” value amounted to 3 days and the “No. of F1 progeny” value was 00. Moreover, in experiment [1] (Sitophilus oryzae), the mortality at 6.25 ppm is 0%, the mortality at 12.5 ppm turned out to be 0%, the mortality at 25 ppm was found to be 100% and the mortality at 50 ppm turned out to be 100%. In experiment [1] (Sitophilus oryzae), this compound came in with a mortality at 75 ppm of 100% and a mortality at 100 ppm of 100%. Besides, in experiment [1] (Sitophilus oryzae, read-out: inhibition of F1 progeny), the inhibition at 12.5 ppm came out at 100%.
`CC[C@H](OC1OC(CO)C(O)C(O)C1O)c1cc2n(c(=O)c1C)Cc1cc3ccccc3nc1-2` (stereo partly shown) [Camptothecanoid 1]: the inhibition at 100 µg/mL came to 70.9% in the experiment with THP 1 cell line (THP-1, 72 h) and 48.3% in experiment [2].
With `NNC(=O)c1ccncc1` [Isoniazid], the IC90 in experiment [2] (read-out: IC90, XTT assay Mycobacterium tuberculosis Ra) was 0.05 µg/mL (≈ 0.365 µM).
For `CC[C@](O)(C(=O)O)c1cc2n(c(=O)c1COC(C)=O)Cc1cc3ccccc3nc1-2` [Camptothecanoid 2], the inhibition at 100 µg/mL with THP 1 cell line (THP-1, 72 h) came to 87.5%; in experiment [2] it was 88.4%.
Take `CC(=O)O[C@H]1C(=O)[C@@]2(C)[C@H]([C@H](OC(=O)c3ccccc3)[C@]3(O)C[C@H](OC(=O)[C@H](O)[C@@H](NC(=O)c4ccccc4)c4ccccc4)C(C)=C1C3(C)C)[C@]1(OC(C)=O)CO[C@@H]1C[C@@H]2O` [Paclitaxel]: in the experiment on THP 1 cell line (setting [3]), the inhibition at 100 µg/mL turned out to be 61%.
For `CCCCCCCC(CC)COC(=O)c1ccccc1C(=O)OCC(CC)CCCCCCC` (stereo not shown) [Phthalate], the figures for the inhibition at 100 µg/mL (in the experiment with THP 1 cell line (setting [3]); in experiment [2]) were 20.1% and 45.6%, respectively.
For `CC[C@](O)(C(=O)O)c1cc2n(c(=O)c1COC(C)=O)Cc1cc3c(OC)cccc3nc1-2` [Camptothecanoid 3], the inhibition at 100 µg/mL in the experiment on THP 1 cell line (THP-1, 72 h) turned out to be 90.2%; in experiment [2], 59%.
